Measurements: publication PMC6478789, “A chemical toolbox for the study of bromodomains and epigenetic signaling” (Nature Communications, 2019)

Experiments:
RPS6KA1 = experiment: Temperature shift assay (protein kinases); assay type: binding; conditions: 10 μM probe; average of three measurements
Experimental: (§1) Temperature shift assays have been described by Fedorov et al.[46]. Recombinant protein domains (bromodomain or kinases) at a concentration of 2 μM in 10 mM HEPES, pH 7.5, and 500 mM NaCl were mixed with 10 μM of chemical probes. Temperature-dependent protein unfolding profiles were measured using a Real-Time PCR Mx3005p machine (Stratagene).

BRAF = biological target: T1, BRAF (Homo sapiens, UniProt P15056); experiment: Temperature shift assay (protein kinases); assay type: binding; conditions: 10 μM probe; average of three measurements
T1 construct: Recombinant protein domains (bromodomain or kinases) at a concentration of 2 μM
Experimental: as §1

CSNK1D = biological target: T2, CSNK1D (Homo sapiens, UniProt P48730); experiment: Temperature shift assay (protein kinases); assay type: binding; conditions: 10 μM probe; average of three measurements
T2 construct: Recombinant protein domains (bromodomain or kinases) at a concentration of 2 μM
T2 sequence (P48730 9-277 limits assumed): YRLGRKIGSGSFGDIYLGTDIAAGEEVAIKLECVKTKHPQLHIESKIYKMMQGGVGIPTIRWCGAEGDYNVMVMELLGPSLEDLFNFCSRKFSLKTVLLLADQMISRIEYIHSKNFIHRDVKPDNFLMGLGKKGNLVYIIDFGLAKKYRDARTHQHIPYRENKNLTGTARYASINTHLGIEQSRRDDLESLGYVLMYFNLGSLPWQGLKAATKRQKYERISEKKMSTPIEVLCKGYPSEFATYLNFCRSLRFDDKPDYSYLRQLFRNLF
Experimental: as §1

TDRD3 = TDRD3 (Homo sapiens, UniProt Q9H7E2); experiment: Temperature shift assay (non-BRD reader domains); assay type: binding; conditions: 10µM compound
Experimental: as §1
(§2) Wu et al., Supplementary figures and tables 14
(§3) Supplementary Table 3: Selectivity screening data (non-BRD reader domains):
(§4) Temperature shift assay data of BRD probes screened against a diver se panel of methyl-lysine
(§5) reader domains. Compounds were screened a concentration of 10 µM. Shown are temperature

FXR1 = FXR1 (Homo sapiens, UniProt P51114); experiment: Temperature shift assay (non-BRD reader domains); assay type: binding; conditions: 10µM compound
Experimental: as §1, §2, §3, §4, §5

RBBP1 = experiment: Temperature shift assay (non-BRD reader domains); assay type: binding; conditions: 10µM compound
Experimental: as §1, §2, §3, §4, §5

53BP1 = 53BP1 (Homo sapiens, UniProt Q12888); experiment: Temperature shift assay (non-BRD reader domains); assay type: binding; conditions: 10µM compound
Experimental: as §1, §2, §3, §4, §5

WDR5 = WDR5 (Homo sapiens, UniProt P61964); experiment: Temperature shift assay (non-BRD reader domains); assay type: binding; conditions: 10µM compound
Experimental: as §1, §2, §3, §4, §5

BRPF3 = BRPF3 (Homo sapiens, UniProt Q9ULD4); experiment: Temperature shift assay (non-BRD reader domains); assay type: binding; conditions: 10µM compound
Experimental: as §1, §2, §3, §4, §5

UHRF1 = biological target: T3, UHRF1 (Homo sapiens, UniProt Q96T88); experiment: Temperature shift assay (non-BRD reader domains); assay type: binding; conditions: 10µM compound
T3 sequence (Q96T88 126-285 limits assumed): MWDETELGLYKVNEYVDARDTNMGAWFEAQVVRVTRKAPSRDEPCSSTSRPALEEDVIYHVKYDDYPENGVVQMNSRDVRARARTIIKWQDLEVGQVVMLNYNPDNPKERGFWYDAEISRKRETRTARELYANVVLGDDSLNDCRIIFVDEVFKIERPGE
Experimental: as §1, §2, §3, §4, §5

EED = EED (Homo sapiens, UniProt O75530); experiment: Temperature shift assay (non-BRD reader domains); assay type: binding; conditions: 10µM compound
Experimental: as §1, §2, §3, §4, §5

SND1 = biological target: T4, SND1 (Homo sapiens, UniProt Q7KZF4); experiment: Temperature shift assay (non-BRD reader domains); assay type: binding; conditions: 10µM compound
T4 sequence (Q7KZF4 729-787 limits assumed): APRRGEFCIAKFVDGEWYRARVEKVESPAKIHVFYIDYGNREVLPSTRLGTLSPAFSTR
Experimental: as §1, §2, §3, §4, §5

TAF1(2) = biological target: T5, TAF1(2) (Homo sapiens, UniProt P21675); experiment: BROMOscan ligand-binding assay
T5 sequence (P21675 1519-1628 limits assumed): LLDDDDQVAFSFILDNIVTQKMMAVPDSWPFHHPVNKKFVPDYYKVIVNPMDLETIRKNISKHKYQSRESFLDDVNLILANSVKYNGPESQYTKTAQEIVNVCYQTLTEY
Text: (§6) BROMOscan is a binding assay based on the well-known KINOMEscan technology. This assay measures the binding of a DNA-tagged bromodomain to an immobilized BRD ligand. If an inhibitor is present, it will compete with the bromodomain binding to the immobilized ligand, resulting in reduction of a quantitative PCR (qPCR) signal in a dose-dependent manner.

BRD9 = biological target: T6, BRD9 (Homo sapiens, UniProt Q9H8M2); experiment: BROMOscan ligand-binding assay; conditions: KD, BROMOscan Gene Symbol BRD9
T6 sequence (Q9H8M2 136-240 limits assumed): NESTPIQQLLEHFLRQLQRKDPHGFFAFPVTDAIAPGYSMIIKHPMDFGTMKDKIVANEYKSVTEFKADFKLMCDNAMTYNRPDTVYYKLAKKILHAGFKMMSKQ
Text: as §6

BRD4(1) = BRD4(1) (Homo sapiens, UniProt O60885); experiment: BROMOscan ligand-binding assay
Text: as §6

SMARCA2(iso.A) = SMARCA2(iso.A) (Homo sapiens, UniProt P51531); experiment: BROMOscan ligand-binding assay
Text: as §6

CREBBP = CREBBP (Homo sapiens, UniProt Q92793); experiment: BROMOscan ligand-binding assay; conditions: KD, CREBBP
Text: as §6

BRDT(2) = BRDT(2) (Homo sapiens, UniProt Q58F21); experiment: BROMOscan ligand-binding assay; conditions: KD, BROMOscan Gene Symbol BRDT(2)
Text: as §6

SMARCA4 = SMARCA4 (Homo sapiens, UniProt P51532); experiment: BROMOscan ligand-binding assay
Text: as §6

BRD2(2) = BRD2(2) (Homo sapiens, UniProt P25440); experiment: BROMOscan ligand-binding assay
Text: as §6

BRD3(1,2) = BRD3(1,2) (Homo sapiens, UniProt Q15059); experiment: BROMOscan ligand-binding assay; conditions: KD, BROMOscan Gene Symbol BRD3(1,2)
Text: as §6

TRIM24(PHD,BRD) = biological target: T7, TRIM24(PHD,BRD) (Homo sapiens, UniProt O15164); experiment: BROMOscan ligand-binding assay; conditions: KD, TRIM24(PHD,Bromo.)
T7 sequence (O15164 824-1006 limits assumed): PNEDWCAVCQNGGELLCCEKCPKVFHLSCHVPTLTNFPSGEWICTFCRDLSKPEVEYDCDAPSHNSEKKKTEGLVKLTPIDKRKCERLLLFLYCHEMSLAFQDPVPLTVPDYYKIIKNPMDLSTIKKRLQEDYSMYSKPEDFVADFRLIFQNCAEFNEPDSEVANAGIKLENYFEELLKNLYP
Text: as §6

BAZ1B = biological target: T8, BAZ1B (Homo sapiens, UniProt Q9UIG0); experiment: BROMOscan ligand-binding assay
T8 sequence (Q9UIG0 1339-1443 limits assumed): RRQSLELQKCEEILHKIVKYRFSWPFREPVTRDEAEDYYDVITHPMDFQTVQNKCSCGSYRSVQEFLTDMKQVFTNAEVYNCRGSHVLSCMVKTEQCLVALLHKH
Text: as §6

BRD4(1,2) = BRD4(1,2) (Homo sapiens, UniProt O60885); experiment: BROMOscan ligand-binding assay
Text: as §6

[1] = KD (BROMOscan), sheet prints no unit (nM)

TDRD3, sequence (Q9H7E2 555-615 limits assumed, species assumed): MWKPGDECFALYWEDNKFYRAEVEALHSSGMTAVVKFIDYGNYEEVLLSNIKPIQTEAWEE
EED, sequence (O75530 whole entry, species assumed, the tested form may be a part): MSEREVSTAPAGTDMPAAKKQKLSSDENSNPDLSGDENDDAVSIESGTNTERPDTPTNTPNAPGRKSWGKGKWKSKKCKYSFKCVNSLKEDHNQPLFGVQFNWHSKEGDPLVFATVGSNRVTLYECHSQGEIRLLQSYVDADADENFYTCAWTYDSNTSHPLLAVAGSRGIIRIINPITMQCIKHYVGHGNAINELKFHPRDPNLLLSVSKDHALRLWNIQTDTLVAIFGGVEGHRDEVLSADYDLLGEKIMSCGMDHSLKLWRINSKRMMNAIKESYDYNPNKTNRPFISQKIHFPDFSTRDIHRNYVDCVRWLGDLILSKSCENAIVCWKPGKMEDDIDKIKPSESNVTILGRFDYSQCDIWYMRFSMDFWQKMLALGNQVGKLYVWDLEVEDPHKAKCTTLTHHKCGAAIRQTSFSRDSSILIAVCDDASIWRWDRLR
FXR1, sequence (P51114 2-132 limits assumed, species assumed): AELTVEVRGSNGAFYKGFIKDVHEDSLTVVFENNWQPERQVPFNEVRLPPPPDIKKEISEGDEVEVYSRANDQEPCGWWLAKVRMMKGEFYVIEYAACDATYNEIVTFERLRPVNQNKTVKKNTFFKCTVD
T1 sequence (P15056 457-717 limits assumed, species assumed): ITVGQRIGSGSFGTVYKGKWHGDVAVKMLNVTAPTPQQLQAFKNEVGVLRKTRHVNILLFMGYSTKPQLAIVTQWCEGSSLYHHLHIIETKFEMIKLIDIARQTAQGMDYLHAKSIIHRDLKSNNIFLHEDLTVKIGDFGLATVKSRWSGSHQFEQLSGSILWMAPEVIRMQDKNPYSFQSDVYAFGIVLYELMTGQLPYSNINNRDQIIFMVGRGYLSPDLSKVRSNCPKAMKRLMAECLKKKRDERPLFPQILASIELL
BRPF3, sequence (Q9ULD4 1076-1159 limits assumed, species assumed): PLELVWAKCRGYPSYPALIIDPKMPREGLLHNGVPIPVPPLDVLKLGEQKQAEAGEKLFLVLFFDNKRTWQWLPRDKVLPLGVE
53BP1, sequence (Q12888 1484-1603 limits assumed, species assumed): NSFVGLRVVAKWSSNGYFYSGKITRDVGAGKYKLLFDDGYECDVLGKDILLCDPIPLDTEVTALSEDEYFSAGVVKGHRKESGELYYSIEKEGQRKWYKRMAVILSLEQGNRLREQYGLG
SMARCA4, sequence (P51532 1453-1564 limits assumed): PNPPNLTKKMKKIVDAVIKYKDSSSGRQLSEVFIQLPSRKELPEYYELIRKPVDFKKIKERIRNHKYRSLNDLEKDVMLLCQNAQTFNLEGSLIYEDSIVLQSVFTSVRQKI
SMARCA2(iso.A), sequence (P51531 1378-1506 limits assumed): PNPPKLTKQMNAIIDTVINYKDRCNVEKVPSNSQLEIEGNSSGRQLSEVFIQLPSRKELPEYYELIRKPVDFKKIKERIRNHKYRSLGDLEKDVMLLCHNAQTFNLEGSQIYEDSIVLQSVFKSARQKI
CREBBP, sequence (Q92793 1085-1192 limits assumed): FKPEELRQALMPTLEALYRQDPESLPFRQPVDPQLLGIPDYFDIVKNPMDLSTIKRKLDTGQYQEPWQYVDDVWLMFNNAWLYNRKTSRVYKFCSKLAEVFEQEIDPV
BRD2(2), sequence (P25440 344-453 limits assumed): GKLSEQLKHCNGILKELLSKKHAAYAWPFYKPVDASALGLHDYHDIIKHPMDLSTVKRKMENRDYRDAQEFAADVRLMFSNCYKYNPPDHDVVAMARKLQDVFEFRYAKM
BRD3(1,2), sequence (Q15059 24-416 limits assumed): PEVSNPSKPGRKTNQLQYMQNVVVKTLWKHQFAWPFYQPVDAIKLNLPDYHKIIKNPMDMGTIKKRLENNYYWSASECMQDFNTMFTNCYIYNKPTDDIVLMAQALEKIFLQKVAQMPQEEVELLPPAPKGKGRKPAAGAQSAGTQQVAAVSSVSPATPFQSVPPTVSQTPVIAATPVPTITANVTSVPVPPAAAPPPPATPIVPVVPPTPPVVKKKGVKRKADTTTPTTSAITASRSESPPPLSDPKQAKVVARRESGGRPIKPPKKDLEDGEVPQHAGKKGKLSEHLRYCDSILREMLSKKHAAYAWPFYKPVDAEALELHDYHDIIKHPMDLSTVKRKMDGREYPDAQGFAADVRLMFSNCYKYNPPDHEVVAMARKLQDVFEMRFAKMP

Temperature shift (BRAF) [Kelvin]	Temperature shift (CSNK1D) [Kelvin]	Tm (C) 10µM, temperature shift (TDRD3) [Kelvin]	Tm (C) 10µM, temperature shift (FXR1) [Kelvin]	Tm (C) 10µM, temperature shift (53BP1) [Kelvin]	Tm (C) 10µM, temperature shift (WDR5) [Kelvin]	Tm (C) 10µM, temperature shift (BRPF3) [Kelvin]	Tm (C) 10µM, temperature shift (UHRF1) [Kelvin]	Tm (C) 10µM, temperature shift (EED) [Kelvin]	Tm (C) 10µM, temperature shift (SND1) [Kelvin]	Structure (SMILES)	Temperature shift (RPS6KA1) [Kelvin]	Tm (C) 10µM, temperature shift (RBBP1) [Kelvin]	also measured
0.1	1.2	-1.4	0.8	0.3	0.2	1.5				Cc1cc2c(cc1N1C(=O)c3cccc4c(CCCO)ccc(c34)C1=O)n(C)c(=O)n2C [BAY-299]	0.1	-1.0	
		-0.6	0.4	-0.1	0.2	-0.2	-0.2	-0.4	-0.5	CO[C@H]1CNC[C@@H](OCC2CCC(F)(F)CC2)[C@@H]1Nc1ncc(-c2cncc(C)c2)c2cc(C)c(=O)[nH]c12 [GSK8814]		-0.1	
-0.1	0.5	-0.6	0.9	0.3	-0.2	0.0	0.0	-0.5	-0.7	CCC(=O)N1CCOc2c(cc(-c3ccc(OC)c(OC)c3)cc2OCC2CCCN(C)C2)C1 (stereo not shown) [I-CBP112]	0.1	-0.1	Kd (TAF1(2)): 45 µM; Kd (BRD9): 25 µM; Kd (BRD4(1)): 2.9 µM; Kd (SMARCA2(iso.A); [1]): > 30000 nM; Kd (SMARCA2(iso.A); KD, SMARCA2(iso.A)): > 100000 nM; Kd (CREBBP): 0.06 µM; Kd (BRDT(2)): 49 µM; Kd (SMARCA4; [1]): > 30000 nM; Kd (SMARCA4; KD, SMARCA4): > 100000 nM; Kd (BRD2(2)): 26 µM; Kd (BRD3(1,2)): 6.3 µM; Kd (TRIM24(PHD,BRD)): 14 µM; Kd (BAZ1B; [1]): > 30000 nM; Kd (BAZ1B; KD, BROMOscan Gene Symbol BAZ1B): > 100000 nM; Kd (BRD4(1,2)): 11 µM
-0.1	0.6	-0.9	0.3		0.5	1.0		-0.3	-1.0	Cc1nnc2c3ccccc3c(N[C@@H](C)[C@H](c3ccccc3)N(C)C)nn12 [L-Moses]	0.2	-0.4	
		-0.7	0.4	0.4	0.2	0.2	0.0	-0.3	-0.5	CN(C)CCCOc1ccc(-c2cc(NCCCn3cccn3)nc(S(C)(=O)=O)n2)cc1 [TP-238]		-0.4	
